Test results reported in patent US20160067270A1, “USE OF GINSENOSIDE F2 FOR PROPHYLAXIS AND TREATMENT OF LIVER DISEASE” (priority 2014, published 2016).

Legend:
male mice = assay: Measurement of serum ALT, AST, TG and total cholesterol levels in ethanol-fed mice; type: in vivo; conditions: 50 mg/kg oral with 3 g/kg ethanol daily for 2 weeks
Method: (§1) 50 mg/kg of ginsenoside F2 (indicated by GF2 in Drawing) dissolved in 3 g/kg of ethanol, together with a normal diet, were orally administered to 8-week-old male mice (weighing 25 g to 28 g) between 3 PM and 4 PM every day for 2 weeks. After 2 weeks, they were sacrificed, and the following experiment was performed.
Blood was collected from mouse abdominal aorta and centrifuged using a centrifuge at 3,300 rpm for 10 minutes to separate only the serum. The levels of ALT (alanine aminotransferase) and AST ([…]) in the serum were measured using a kit of IDEXX Laboratories (USA) in accordance with the manufacturer's instructions by VetTEST (IDEXX, USA). Further, 50 mg of the hepatic tissue was excised and ground, and then a chloroform-methanol (2:1) solution was added thereto, followed by centrifugation. The lipid components contained in the hepatic tissue were extracted, and the levels of triglyceride (TG) and total cholesterol in the extract solution were measured using a kit of IDEXX Laboratories (USA) in accordance with the manufacturer's instructions by VetTEST.

liver tissue = assay: Liver histological analysis (H&E, TUNEL, Oil-red O staining); type: in vivo, mice; conditions: 50 mg/kg oral with 3 g/kg ethanol, 2 weeks
[1] = test system: hepatocytes separated from mouse liver; assay: Lipogenesis-related index in hepatocytes separated from mouse liver; type: in vivo; conditions: EtOH+GF2 vs EtOH+Vehicle; FIG. 4a
Method: as §1

[2] = test system: hepatic stellate cells separated from mouse liver; assay: Lipogenesis-related index in hepatic stellate cells separated from mouse liver; type: in vivo; conditions: EtOH+GF2 vs EtOH+Vehicle; FIG. 4b
Method: as §1

liver tissues = assay: Western blotting of proteins extracted from the liver tissues; type: in vivo, mice; conditions: FIG. 4c
Method: as §1
Expression of fat oxidation-inducing pAMPK was increased and expression of lipogenic SREBP1c and FAS was reduced by administration of ginsenoside F2.

co-cultured hepatocytes = assay: Co-culture with ethanol: co-cultured hepatocytes (Western blotting, real-time PCR); type: cell-based, mice; conditions: 100 mM ethanol 12 hours, then 30 μM for 6 or 12 hours
Method: (§2) During the culture, they were treated with 100 mM ethanol for 12 hours, and then 30 μM ginsenoside F2 for 6 hours or 12 hours.

[3] = test system: co-cultured hepatic stellate cells; assay: Co-culture with ethanol: co-cultured hepatic stellate cells; type: cell-based, mice; conditions: 100 mM ethanol 12 hours, then 30 μM for 6 or 12 hours; FIG. 5d
Method: as §2

[4] = test system: human hepatocyte cell line HepG2A; assay: LXR-mediated fat synthesis in HepG2A (real-time PCR); type: cell-based
Method: To examine a fat synthesis inhibition mechanism of ginsenoside F2, human hepatocyte cell line HepG2A was treated with 30 μM ginsenoside F2, and 30 minutes later, further treated with 10 μM TO901317, which induces fat synthesis as an LXR agonist stimulating fatty acid synthesis, followed by culture for 9 hours.
Further, HepG2A was treated with ginsenoside F2 by varying its concentration from 0 μM to 100 μM, and cultured for 12 hours.

Hepatic stellate cells = Hepatic stellate cells treated with TO901317 (real-time PCR and Western blotting); type: cell-based; conditions: 30 μM, 30 minutes later 10 μM TO901317, culture 12 hours
Method: Hepatic stellate cells were treated with 30 μM of ginsenoside F2, and 30 minutes later, further treated with 10 μM TO901317, followed by culture for 12 hours. FIGS. 5f and 5g show the results of real-time PCR and Western blotting of the cultured hepatic stellate cells.

[5] = test system: monocytes isolated from the liver; assay: Flow cytometry of monocytes / inflammatory cells isolated from the liver of ethanol-fed mice; type: in vivo; conditions: 3 g/kg ethanol daily for 2 weeks
Method: (§3) Mice were fed with 3 g/kg of ethanol together with a normal diet every day for 2 weeks. In this regard, Group 1 (E+Veh) was fed with vehicle, and Group 2 (E+GF2) was fed with ginsenoside F2.
Thereafter, monocytes were isolated from the liver, and stained with the macrophage markers, CD11b and F4/80, followed by flow cytometry. As a result, treatment of ginsenoside F2 reduced a percentage of macrophage (FIG. 6a). Flow cytometry was also performed using the neutrophil markers CD11b and Gr-1. As a result, treatment of ginsenoside F2 reduced a percentage of neutrophil (FIG. 6b).
Further, inflammatory cells in the liver were stained with regulatory T cell (Treg) markers, CD4, CD25, and Foxp3. As a result, treatment of ginsenoside F2 increased regulatory T cells, and decreased Th17 cells (IL-17 and CD4 positive) which are one of proinflammatory cells.

isolated monocytes = assay: Real-time PCR of isolated hepatic monocytes of ethanol-fed mice; type: in vivo; conditions: FIG. 6d
Source text: as §3
(§4) Further, the isolated monocytes were subjected to real-time PCR. As a result, expression of the inflammatory cytokines TNF-α, IL-6, and IL-17 increased by alcohol was inhibited by ginsenoside F2, and expression of anti-inflammatory cytokine IL-10 was increased thereby (FIG. 6d). These effects are consistent with the results of ELISA of mouse serum (FIG. 6e).

mouse serum = assay: ELISA of mouse serum (cytokines); type: in vivo; conditions: compared with real-time PCR results; FIG. 6e
Source text: as §3, §4

Naive T cells = assay: Differentiation of naive T cells into IL-17-producing Th17 cells; type: cell-based, mice; conditions: 0 μM to 30 μM
Method: Naive T cells were isolated from mice, and treated with 5 ng/mL TGF-β1 and 20 ng/mL IL-6, and then cultured in a CD3/28 antibody-coated dish for 3.5 days to differentiate the cells into proinflammatory Th17 cells (T helper 17 cells). In this regard, the cells were also treated with ginsenoside F2 by varying its concentration (0 μM to 30 μM), and markers for Th17 cells were examined, and the results are shown in FIGS. 7a to 7c. N represents naive T cells treated with none of TGF-β1, IL-6, and ginsenoside F2.

[6] = test system: IL-10-deficient male mice; assay: IL-10-deficient mice: serum levels and necrotic foci of liver tissue; type: in vivo; conditions: 50 mg/kg oral with 3 g/kg ethanol daily for 2 weeks
Method: (§5) 8-week-old IL-10-deficient male mice (weighing 25 g to 28 g) were orally administered with 3 g/kg ethanol and 50 mg/kg ginsenoside F2, together with a normal diet, every day for 2 weeks (E+GF2). A control group was fed with an equal amount of ethanol and vehicle instead of ginsenoside F2 (E+Veh). 2 weeks later, the sera, liver tissues, and hepatic monocytes were obtained from the mice by autopsy. Thereafter, in the same manner as in Example 1. (1), the serum ALT, AST, TG, and cholesterol levels were measured, and necrotic foci were examined in the liver tissue to count the number of necrotic foci in two sections of the liver. In the hepatic monocytes, macrophage and neutrophil expression levels were examined by flow cytometry using F4/80 or Gr1 antigen marker.

hepatic monocytes = assay: IL-10-deficient mice: hepatic monocytes (flow cytometry, real-time PCR); type: in vivo
Method: as §5

[7] = test system: breast cancer stem cells (CSCs); conditions: Mai T T et al. 2012; cited from earlier work
glioblastoma = conditions: xenograft model in SD rats; Shin J Y et. al. 2012; cited from earlier work
[8] = 0 μM to 100 μM, cultured for 12 hours, FIG. 5f
[9] = 30 μM, 30 minutes later 10 μM TO901317, culture 9 hours, real-time PCR, FIG. 5e
[10] = 5 ng/mL TGF-β1 and 20 ng/mL IL-6, 3.5 days, FIGS. 7a and 7b
[11] = 50 mg/kg, 2 weeks, flow cytometry, FIGS. 8d and 8e
[12] = real-time PCR using monocytes, FIG. 8h

## CC(C)=CCC[C@](C)(O[C@@H]1O[C@H](CO)[C@@H](O)[C@H](O)[C@H]1O)[C@H]1CC[C@]2(C)[C@@H]1[C@H](O)C[C@@H]1[C@@]3(C)CC[C@H](O[C@@H]4O[C@H](CO)[C@@H](O)[C@H](O)[C@H]4O)C(C)(C)[C@@H]3CC[C@]12C [ginsenoside F2]
Male mice; FIG. 2
  total cholesterol level increased by alcohol: reduced
Male mice; FIG. 2(a)
  liver injury index ALT level: did not significantly increase
Male mice; FIG. 2(b)
  AST level: lower
Male mice; FIG. 2(c)
  fatty liver index, TG level: reduced to the normal level
Liver tissue; FIG. 3a
  Triglyceride accumulation (Oil-red O staining): reduced
  cell damage (TUNEL staining): reduced
  ethanol-induced inflammation (H&E staining): reduced
Liver tissue; FIG. 3b
  TUNEL-positive cell death caused by alcohol administration (statistical analysis): remarkably reduced
Liver tissue; FIG. 3c
  triglycerides in the liver tissue (statistical analysis): remarkably reduced
[1]
  expression of ADH1: significantly reduced
  expression of CB1R: significantly reduced
  expression of CYP2e1: significantly reduced
  expression of FAS: significantly reduced
  expression of SREBP1c: significantly reduced
[2]
  expression of DAGL-α,β: significantly reduced
  fatty acid amide hydrolase (FAAH) expression: significantly increased
Liver tissues
  Expression of fat oxidation-inducing pAMPK: increased
  expression of lipogenic FAS: reduced
  expression of lipogenic SREBP1c: reduced
co-cultured hepatocytes; Western blotting, FIG. 5b
  expression of lipogenic FAS: decreased
  expression of lipogenic SREBP1c: decreased
  expression of lipolytic pAMPK: increased
co-cultured hepatocytes; real-time PCR, FIG. 5c
  expression of CB1R: reduced
  expression of FAS: reduced
  expression of SREBP1c: reduced
[3]
  expression of DAGL-α,β: reduced
[4]; [8]
  concentration at which an excellent inhibitory effect on SREBP1c and FAS expression was observed: ≥ 40 µM
  expression of FAS: reduced
  expression of SREBP1c: reduced
[4]; [9]
  expression of FAS increased by LXR agonist TO901317: inhibit
  expression of SREBP1c increased by LXR agonist TO901317: inhibit
Hepatic stellate cells
  expression of glutamate receptor mGluR1 or 5: significantly increased
[5]; E+GF2 vs E+Veh
  Th17 cells (IL-17 and CD4 positive): decreased
  regulatory T cells (CD4, CD25, Foxp3): increased
[5]; E+GF2 vs E+Veh, FIG. 6a
  percentage of macrophage (CD11b, F4/80): reduced
[5]; E+GF2 vs E+Veh, FIG. 6b
  percentage of neutrophil (CD11b, Gr-1): reduced
[5]; FIG. 6c
  percentage of CD4 T cells: no significant effects
  percentage of CD8 T cells: no significant effects
  percentage of NK cells: no significant effects
  percentage of NKT cells: no significant effects
Isolated monocytes
  expression of anti-inflammatory cytokine IL-10: increased
  expression of inflammatory cytokine IL-6 increased by alcohol: inhibited
  expression of inflammatory cytokine IL-17 increased by alcohol: inhibited
  expression of inflammatory cytokine TNF-α increased by alcohol: inhibited
Mouse serum
  cytokine effects (TNF-α, IL-6, IL-17, IL-10) by ELISA of mouse serum: consistent
Naive T cells; [10]
  IL-17-expressing Th17 cells (FACS): decreased
  anti-inflammatory cytokine IL-10 (FACS): increased
Naive T cells; real-time PCR, FIG. 7c
  Th17 cell-specific transcription factor RORγt: decreased
  Th17 cell-specific transcription factor STAT3: decreased
  expression of Abca1: decreased
[6]; FIG. 8a
  ALT level: no significant effects
  TG level: no significant effects
  cholesterol level: no significant effects
[6]; FIGS. 8b and 8c
  necrotic foci of the liver tissue: no great changes
Hepatic monocytes; 50 mg/kg, 2 weeks, FIG. 8f
  other immune cells: no significant effects
Hepatic monocytes; 50 mg/kg, 2 weeks, FIG. 8g
  CD4+CD25+Foxp3+ regulatory T cells: increased
Hepatic monocytes; [11]
  expression of macrophage (F4/80): no significant effects
  expression of neutrophil (Gr1): no significant effects
Hepatic monocytes; [12]
  expression of Foxp3: increased
  expression of inflammatory cytokine IL-6: increased
  expression of inflammatory cytokine IL-17: increased
[7]
  cell apoptosis in breast cancer stem cells: induces cell apoptosis accompanied by autophagy
glioblastoma
  anti-cancer effects on glioblastoma: exhibits anti-cancer effects
